Laboratory results reported in US20090181010A1, “Arginase II: a target for the prevention of atherosclerosis” (The Johns Hopkins University, priority 2006, published 2009).
Numbered stars: 1 amine (or outer) side, 2 acyl side, 3 side chain; on linkers, the order of the positions; unused ones are H or OH. Bridge positions count the residues as written; N and C are the ends. Square brackets hold non-standard residues; d marks the D form. Peptide text beside a SMILES is read from it. I, II: the chains in the order shown. Actinocin(9to1) = Cc1c2oc3c(C)ccc(C(=O)[*:1])c3nc-2c(C(=O)[*:2])c(N)c1=O; NMeV = CN[C@H](C(=O)O)C(C)C; Sar = CNCC(=O)O

Key:
arginase [1] = assay: Arginase activity in rat aortic rings; conditions: rat aortic rings E+, preincubation with BEC
Protocol: (§1) Cell lysates were prepared with lysis buffer (50 mM Tris-HCl, pH7.5, 0.1 mM EDTA and protease inhibitors) by brief vigorous vortexing for 30 min and incubation and centrifuging for 20 min at 14,000 g at 4° C. The supernatants are used for arginase activity as described previously^18. Arginase activity from aortic vessels was assayed as described above following homogenization in lysis buffer.

arginase [2] = assay: Aortic arginase activity in Apo E knockout mice; type: in vivo; conditions: Apo E KO mice, BEC treated
Protocol: (§2) FIGS. 8A-B Arginase inhibition decreases vascular stiffness and restores endothelial function in Apo E knockout mice. 16 WT mice were randomized to receive a normal or high cholesterol (HC) diet. […] Aortic Pulse wave velocity (PWV) (measured by 20 MHz pulsed Doppler from arch to abdominal aorta (4 cm) was used to measure vascular stiffness before and after pump implanatation.
as §1

NO production [3] = assay: Aortic NO production (griess method) in Apo E knockout mice; type: in vivo; conditions: Apo E KO mice, BEC treated
NO production [4] = assay: NO production in rat aortic rings; conditions: rat aortic rings E+, pre-incubation with BEC
Protocol: FIGS. 7A-B depict arginase dependent endothelial dysfunction in OxLDL treated rat aorta. Arginase inhibition restores endothelial function and increases NO production in rat aortic rings. […] The increase in arginase activity was blocked by preincubation with BEC ([…], *p=0.0007, **p<0.0001 vs. untreated control; #p=0.0003 vs. OxLDL; n=5).
(§3) NO was estimated as nitrate/nitrite (NOx) by Griess reaction after conversion of nitrate to nitrite by nitrate reductase, using the Nitric Oxide Assay Kit (Calbiochem). The concentration of NOx from cell lysates was expressed as nmol/mg proteins.

human arginase II = target: T1, human arginase II (Homo sapiens, UniProt P78540); conditions: cited from earlier work
T1 sequence (P78540 23-354): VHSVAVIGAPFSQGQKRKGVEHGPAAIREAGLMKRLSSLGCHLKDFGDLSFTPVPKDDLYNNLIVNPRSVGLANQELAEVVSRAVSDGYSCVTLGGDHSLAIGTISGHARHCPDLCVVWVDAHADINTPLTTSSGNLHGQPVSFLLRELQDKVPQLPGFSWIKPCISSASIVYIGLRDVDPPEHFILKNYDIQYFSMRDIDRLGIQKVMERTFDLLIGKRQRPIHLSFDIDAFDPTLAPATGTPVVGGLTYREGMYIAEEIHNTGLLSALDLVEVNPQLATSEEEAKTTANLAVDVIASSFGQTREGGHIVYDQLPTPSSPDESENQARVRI

Apo E knockout mice = assay: Aortic pulse wave velocity (vascular stiffness) in Apo E knockout mice; type: in vivo; conditions: Apo E KO mice, HC diet
Description: as §2

NO production [5] = assay: NO measurement (NOx, Griess reaction) in HAECs; type: cell-based, human
Protocol: (§4) Human aortic endothelial cells (HAECs) were purchased from Cascade Biologics (Portland, Oreg.) and maintained in Medium M200 containing low serum growth supplement according to the supplier's protocol. Confluent HAECs were incubated with starvation medium (M200 plus only 0.5% fetal bovine serum) for 24 hr prior to the experimental protocols.
as §3

arginase II [6] = assay: Quantitative PCR of arginase II expression in HAECs; type: cell-based, human; conditions: HAEC
Protocol: Total RNA from Ox-LDL-stimulated HAEC was prepared using Trizol Reagent according to the supplier's protocol (Gibco). To exclude contamination with genomic DNA, total RNA was treated with RNase-free DNase (Roche). PCR reaction was performed in iCycler optical system (Bio-rad) using SYBR green PCR master mix. The reverse transcriptional PCR primers are as follows: Arginase I: Forward 5′-GGC AAG GTG GCA GAA GTC A-3′, Reverse 5′-TGGTTGTCAGTGGAGTGTTG-3′, size of PCR products=163 bp; Arginase II: Forward 5′-CTATCAGCACTGGATCTTGTTG-3′, Reverse 5′-GGGAGTAGGAAGTTGGTCATAG-3′, size of PCR products=156 bp. 18S rRNA gene (Forward 5′-CGGCGACGACCCATTCGAAC-3′, Reverse 5′-GAATCGAACCCTGATTCCCCGTC-3′, size of PCR product=99 bp) was amplified as a control.

arginase II [7] = assay: Western blot of arginase II protein in HAECs; type: cell-based, human; conditions: HAEC, cycloheximide 10 μM co-incubation
Protocol: Transient transfection of arginase-SiRNA (Santa Cruz Biotechnology) was performed with Oligofectamine reagent according to instructions provided by the supplier (Invitrogen). In brief, 8 μL of Oligofectamine was added to 17 μL Opti-MEM I reduced serum medium (Gibco), incubated for 5 minutes at room temperature, mixed with 180 μL Opti-MEM medium containing different amount of SiRNA, and further incubated for 15 minutes. The SiRNA-Oligofectamine complex was then overlaid on cells (each well of a 6 well culture dish). After incubation for 6 h, endothelial growth medium containing 3 times serum was added for making normal growth medium of 1× serum concentration. Transfected cells were then further incubated for 36 hr and starved for 24 hr prior to experiments and then stimulated with OxLDL for additional 6 hours.
Cells were lysed in SDS sample buffer (62.5 mM Tris, pH6.8, 2% SDS, and 10% Glycerol) and then sonicated for 5 s to reduce sample viscosity. Each sample was resolved by 10% SDS-PAGE, transferred to PVDF membrane (Bio-rad), analysed with antibodies according to the supplier's protocol, and visualized with peroxidase and an enhanced-chemiluminescence system (Pierce). Normalization was performed using the anti-β-tubulin antibody (BD bioscience, 1:1,000). Densitometric analysis of bands was performed with NIH ImageJ program.

arginase [8] = assay: Arginase activity assay in HAEC lysates; type: cell-based, human
Protocol: as §4, §1

HAECs = assay: Immunofluorescence of arginase II and beta-tubulin in HAECs; type: cell-based, human; conditions: HAEC, nocodazole 50 μM, 30 minutes
Protocol: HAECs were cultured on coverslips coated with 25 µg/ml human plasma fibronectin (Invitrogen). Cells were then fixed and permeabilized with 3% paraformaldehyde and 0.5% Triton X-100 in PBS for 2 minutes, followed by 20 minutes of 3% paraformaldehyde alone. Samples were prepared for immunofluorescence analysis by incubating with a rabbit polyclonal antisera against arginase II (Santa Cruz Biotechnology, 1:50) and a mouse monoclonal antibody against β-tubulin (BD Biosciences, 1:50) for 30 minutes at 37° C. They were then rinsed in tris-buffered saline and incubated with Cy5-conjugated anti-rabbit IgG and Cy3-conjugated anti-mouse IgG (Chemicon, Temecula, Calif.). Images were acquired using a Nikon TE-200 epifluorescence microscope (with a 60× objective, and collected using Openlab software (Improvision, Lexington, Mass.) and an internally cooled 12-bit CCD camera (CoolsnapHQ, Photometrics, Tucson, Ariz.).

## N[C@@H](CSCCB(O)O)C(=O)O [BEC, S-(2-boronoethyl)-L-cysteine]
Arginase [1]
  OxLDL-induced increase in arginase activity: blocked
Arginase [2]
  aortic arginase activity: significant decrease
NO production [3]
  aortic NO production: restoration of NO production to WT
NO production [4]
  vascular NO production following OxLDL treatment: increased vascular NO production
Human arginase II
  Ki: 210 nM
Apo E knockout mice; BEC group, before pump implantation
  Aortic pulse wave velocity (PWV): 4.9±0.22 m/sec
Apo E knockout mice; after 4 weeks BEC (1 mg/mice) by osmotic infusion pump
  Aortic pulse wave velocity (PWV): 4.0±0.25 m/sec
NO production [5]; BEC alone, no OxLDL
  effect on HAEC NOx production: no effect
NO production [5]; HAEC, BEC 10 μmol/L, all time points from 4 hrs
  prevention of OxLDL-dependent decrease in NO: prevents
NO production [5]; HAEC, OxLDL 50 μg/ml + BEC 10 μmol/L, 4 hrs
  NOx production, OxLDL+BEC vs. control: 102%
NO production [5]; HAEC, OxLDL + BEC 10 μmol/L, 4 hrs, control 14.24±0.95
  NOx production: 14.58±0.94 nmol/mg proteins

## Cc1c2oc3c(C)ccc(C(=O)N[C@@H]4C(=O)N[C@H](C(C)C)C(=O)N5CCC[C@H]5C(=O)N(C)CC(=O)N(C)[C@@H](C(C)C)C(=O)O[C@@H]4C)c3nc-2c(C(=O)N[C@@H]2C(=O)N[C@H](C(C)C)C(=O)N3CCC[C@H]3C(=O)N(C)CC(=O)N(C)[C@@H](C(C)C)C(=O)O[C@@H]2C)c(N)c1=O [actinomysin D] (I: T[dV]P[Sar][NMeV] / II: T[dV]P[Sar][NMeV]; ester I:1-I:C, II:1-II:C; linker I:N-II:N via Actinocin(9to1))
Arginase II [6]; OxLDL 4 hrs + actinomysin D 10 μg/ml
  arginase II expression (quantitative PCR), relative to control 1.0±0.06: 1.1±0.15
Arginase II [6]; actinomysin D 10 μg/ml
  block of OxLDL-induced arginase II expression: completely blocked

## C[C@@H]1C[C@@H]([C@H](O)CC2CC(=O)NC(=O)C2)C(=O)[C@@H](C)C1 [cycloheximide]
Arginase II [7]
  block of OxLDL-induced arginase II protein increase: completely blocked

## C/C(=C\c1csc(C)n1)[C@@H]1C[C@@H]2O[C@]2(C)CCC[C@H](C)[C@H](O)[C@@H](C)C(=O)C(C)(C)[C@@H](O)CC(=O)O1 [epothilone B]
Arginase [8]; OxLDL + epothilone B 0.1 μmol/L
  arginase activity: 73.55±2.82 μmol Urea/mg protein/min
NO production [5]; HAEC, OxLDL + epothilone B 0.1 μmol/L
  endothelial NO production: 8.05±0.47 nmol/mg proteins
NO production [5]; HAEC, epothilone B alone
  basal endothelial cell NOx: small but not statistically significant increase

## COC(=O)Nc1nc2ccc(C(=O)c3cccs3)cc2[nH]1 [nocodazole]
HAECs
  arginase II localization (immunofluorescence): diffuse arginase localization
Arginase [8]; nocodazole 5 μmol/L, control 40.4±7.63
  arginase activity: 100.7±11.17 μmol Urea/mg protein/min
Arginase [8]; nocodazole 50 μmol/L, control 40.4±7.63
  arginase activity: 134.3±0.28 μmol Urea/mg protein/min
Arginase [8]; nocodazole in combination with Ox-LDL
  arginase activity: 141.9±7.07 μmol Urea/mg protein/min
NO production [5]; HAEC, nocodazole treatment
  NOS measurement: reciprocal decrease
